What was measured:
Assay type in all cases: in vivo
Alternaria solani = assay: Alternaria test (tomato)/protective; conditions: 168 h, tomato plants, protective spray, evaluation 7 days after inoculation, read-out: Efficacy (%)
Protocol: Alternaria Test (Tomato)/Protective
Solvent: 49 parts by weight of N,N-dimethylformamide
(§1) Emulsifier: 1 part by weight of alkylaryl polyglycol ether
To produce a suitable preparation of active compound, 1 part by weight of active compound is mixed with the stated amounts of solvent and emulsifier, and the concentrate is diluted with water to the desired concentration. To test for protective activity, young tomato plants are sprayed with the preparation of active compound at the stated application rate. 1 day after the treatment, the plants are inoculated with a spore suspension of Alternaria solani and then remain at 100% rd. humidity and 22° C. for 24 h. The plants then remain at 96% rd. atmospheric humidity and a temperature of 20° C. Evaluation is carried out 7 days after the inoculation. 0% means an efficacy which corresponds to that of the control, whereas an efficacy of 100% means that no infection is observed.
(§2) In this test, the following compounds according to the invention show, at an active compound concentration of 500 ppm, an efficacy of 70% or more: […]

Uromyces appendiculatus = assay: Uromyces test (bean)/protective; conditions: 240 h, protective spray, evaluation 10 days after inoculation, read-out: Efficacy (%)
Protocol: Uromyces Test (Bean)/Protective
(§3) Solvents: 24.5 parts by weight of acetone
(§4) • 24.5 parts by weight of dimethylacetamide Emulsifier: 1 part by weight of alkylaryl polyglycol ether
To produce a suitable preparation of active compound, 1 part by weight of active compound is mixed with the stated amounts of solvent and emulsifier, and the concentrate is diluted with water to the desired concentration. To test for protective activity, young plants are sprayed with the preparation of active compound at the stated application rate. After the spray coating has dried on, the plants are inoculated with an aqueous spore suspension of the bean rust pathogen Uromyces appendiculatus and then remain in an incubation cabin at about 20° C. and 100% relative atmospheric humidity for 1 day. The plants are then placed in the greenhouse at about 21° C. and a relative atmospheric humidity of about 90%. Evaluation follows 10 days after the inoculation. 0% means an efficacy which corresponds to that of the control, whereas an efficacy of 100% means that no infection is observed.
(§5) In this test, the following compounds according to the invention show, at an active compound concentration of 100 ppm, an efficacy of 70% or more: […]

Septoria tritici = Septoria tritici test (wheat)/protective; conditions: Zymoseptoria tritici, 504 h, protective spray, evaluation 21 days after inoculation, read-out: Efficacy (%)
Protocol: Septoria tritici Test (Wheat)/Protective
(§6) Solvent: 49 parts by weight of N,N-dimethylacetamide
as §1
(§7) To produce a suitable preparation of active compound, 1 part by weight of active compound is mixed with the stated amounts of solvent and emulsifier, and the concentrate is diluted with water to the desired concentration. To test for protective activity, young plants are sprayed with the preparation of active compound at the stated application rate. After the spray coating has dried on, the plants are sprayed with a spore suspension of Septoria tritici. The plants remain in an incubation cabin at 20° C. and 100% relative atmospheric humidity for 48 hours. Thereafter, the plants are placed under a translucent hood at 15° C. and 100% relative air humidity for a further 60 hours. The plants are placed in a greenhouse at a temperature of about 15° C. and a relative atmospheric humidity of about 80%. Evaluation follows 21 days after the inoculation. 0% means an efficacy which corresponds to that of the control, whereas an efficacy of 100% means that no infection is observed.
as §2

Venturia inaequalis = assay: Venturia test (apple)/protective; conditions: 240 h, protective spray, evaluation 10 days after inoculation, read-out: Efficacy (%)
Protocol: Venturia Test (Apple)/Protective
as §3, §4
To produce a suitable preparation of active compound, 1 part by weight of active compound is mixed with the stated amounts of solvent and emulsifier, and the concentrate is diluted with water to the desired concentration. To test for protective activity, young plants are sprayed with the preparation of active compound at the stated application rate. After the spray coating has dried on, the plants are inoculated with an aqueous conidia suspension of the apple scab pathogen Venturia inaequalis and then remain in an incubation cabin at approx. 20° C. and 100% relative air humidity for 1 day. The plants are then placed in the greenhouse at about 21° C. and a relative atmospheric humidity of about 90%. Evaluation follows 10 days after the inoculation. 0% means an efficacy which corresponds to that of the control, whereas an efficacy of 100% means that no infection is observed.
as §5

Puccinia triticina = Puccinia triticina test (wheat)/protective; conditions: 192 h, protective spray, evaluation 8 days after inoculation, read-out: Efficacy (%)
Protocol: Puccinia triticina Test (Wheat)/Protective
as §6, §1
as §7, with “sprayed with spores with a spore” for “sprayed with a spore”, “suspension of Puccinia triticina. The plants” for “suspension of Septoria tritici. The plants”, “48 hours. The plants” for “48 hours. Thereafter, the plants are placed under a translucent hood at 15° C. and 100% relative air humidity for a further 60 hours. The plants”, “of about 20° C. and” for “of about 15° C. and”, “Evaluation follows 8 days after” for “Evaluation follows 21 days after”
as §2

[1] = system: Blumeria graminis fsp. hordei; assay: Blumeria graminis test (barley)/protective; conditions: 168 h, protective spray, evaluation 7 days after inoculation, read-out: Efficacy (%)
Protocol: Blumeria graminis Test (Barley)/Protective
as §6, §1
To produce a suitable preparation of active compound, 1 part by weight of active compound is mixed with the stated amounts of solvent and emulsifier, and the concentrate is diluted with water to the desired concentration. To test for protective activity, young plants are sprayed with the preparation of active compound at the stated application rate. After the spray coating has dried on, the plants are dusted with spores of Blumeria graminis fsp. hordei. The plants are placed in a greenhouse at a temperature of about 18° C. and a relative air humidity of about 80% to promote the development of mildew pustules. Evaluation follows 7 days after the inoculation. 0% means an efficacy which corresponds to that of the control, whereas an efficacy of 100% means that no infection is observed.
as §2

Phakopsora pachyrhizi = Phakopsora pachyrhizi test (soya bean)/protective; conditions: protective spray, 100 ppm, evaluation 11 days after inoculation
Protocol: Phakopsora pachyrhizi Test (Soya Bean)/Protective
Solvent: 28.5 parts by weight of acetone
Emulsifier: 1.5 part by weight of polyoxyethylene alkylphenyl ether
To produce a suitable preparation of active compound, 1 part by weight of active compound is mixed with the stated amounts of solvent and emulsifier, and the concentrate is diluted with water to the desired concentration. To test for protective activity, young plants are sprayed with the preparation of active compound at the stated application rate. 1 day after spraying, the plants are inoculated with an aqueous spore suspension of the soya bean rust pathogen (Phakopsora pachyrhizi). The plants are placed in a greenhouse at a temperature of about 20° C. and a relative atmospheric humidity of about 80%. Evaluation follows 11 days after the inoculation. 0% means an efficacy which corresponds to that of the control, whereas an efficacy of 100% means that no infection is observed.
In this test, the following compounds according to the invention show, at an active compound concentration of 100 ppm, an efficacy of 80% or more: […]

SMILES	pest or weed control at 500 ppm (Alternaria solani) [%]	pest or weed control at 100 ppm (Uromyces appendiculatus) [%]	pest or weed control at 500 ppm (Septoria tritici) [%]	pest or weed control at 100 ppm (Venturia inaequalis) [%]	pest or weed control at 500 ppm (Puccinia triticina) [%]	pest or weed control at 500 ppm [1] [%]	Efficacy (%) (Phakopsora pachyrhizi)
CC(C)C(O)(COc1ccc(OC(F)(F)F)cc1)c1cncnc1 (stereo not drawn) [Compound 2]	100	100	93	94	100	100	–
CC(C)(C)C(O)(COc1ccc(OC(F)(F)F)cc1)c1cncnc1 (stereo not drawn) [Compound 12]	100	100	100	99	100	100	98
CC(C)(C)C(O)(COc1ccc(SC(F)(F)F)cc1)c1cncnc1 (stereo not drawn) [Compound 17]	94	100	100	100	100	100	97
CC1(C(O)(COc2ccc(OC(F)(F)F)cc2)c2cncnc2)CC1 (stereo not drawn) [Compound 18]	90	100	100	99	100	100	98
